Measurements from PMC8437281 (PLoS ONE, 2021).
“And” between values parts separate entries of the source, which are not always exact repeats. Equal entries are not always repeated. Where two headings read alike, the source gives them in different places. Where no end group is shown, it is not given here.

What was measured:
[1] = test system: C. difficile 630; details: lowest concentration killing ≥99.9%, after 24 h incubation plated on BHI agar, 37°C, anaerobic, triplicate
[2] = test system: C. difficile 630; details: C. difficile 630, BHI broth, 24 h, 37°C, anaerobic, OD 600 nm; triplicate
[3] = test system: Caco-2 cells
[4] = test system: C. difficile 630; test: microbe, parasite or virus in culture; details: Clostridioides difficile, 630, 24 h

Question: What does the source list for KWKLFKKIGAVLKVLA-NH2 [CM-A]?
Answer: Minimum bactericidal concentration (MBC) [1]: 4.24 µM; MIC [2]: 1.06 µM; Reduction of viability of Caco-2 cells ([3]; Caco-2): 11%; Viability of Caco-2 cells ([3]; Caco-2, 33.94 µM): 40%

Question: With KWKLFKKIGAVLKVL-NH2 [CM] as the molecule, how does the “Minimum bactericidal concentration (MBC)” value [1] read?
Answer: The value was 2.21 µM.

Question: And the “MIC” value [2]?
Answer: Its value is 2.21 µM.

Question: How did the MIC [4] turn out when CN[C@H](CC(C)C)C(=O)N[C@H]1C(=O)N[C@@H](CC(N)=O)C(=O)N[C@H]2C(=O)N[C@H]3C(=O)N[C@H](C(=O)N[C@H](C(=O)O)c4cc(O)cc(O)c4-c4cc3ccc4O)[C@H](O)c3ccc(c(Cl)c3)Oc3cc2cc(c3O[C@@H]2O[C@H](CO)[C@@H](O)[C@H](O)[C@H]2O[C@H]2C[C@](C)(N)[C@H](O)[C@H](C)O2)Oc2ccc(cc2Cl)[C@H]1O [Vancomycin] was run?
Answer: Its MIC is 0.488 µg/mL and 0.34 µM.
